In patent EP2322149A1, “Methods and compositions for the treatment of ischemia” (Universidad del Pais Vasco, priority 2009, dated 2011):
Entries after “also recorded” stand apart in the source; their conditions may differ. Counter-ions that a name gives are not always drawn.

Key:
[1] = tested on: optic nerve oligodendrocytes; assay: Whole-cell recording of ischaemic inward current in cultured oligodendrocytes (chemical ischaemia); format: cell-based, Sprague-Dawley rats
Method: After 2-4 days in vitro, cultures were composed of at least 98% 04/Ga1C^+ cells. No microglial cells were detected in these cultures. […] Cell death was determined 24h later using calcein-AM (Invitrogen) as previously described (Matute et al., 1997 Proc Natl Acad Sci U S A 94:8830-8835.). Antagonists were present during in vitro ischaemia and during the next 24h incubation period. […] Calcein was used to quantify the number of cells within the reading field. Fluorescence was measured as above and values were plotted as the percentage of DCFDA/calcein red-orange fluorescence versus control. […] Molecular Probes). […] The changes in the membrane potential were calculated as the red (emission at 590)/green (emission at 520) ratio in each condition and results were normalized to control. Whole cell recordings were performed at room temperature and at a holding membrane potential of -70 mV. Extracellular bath solution with a pH of 7.3 contained (in mM): […] Patch clamp pipettes (3-5 MΩ) were filled with internal solution at a pH of 7.3 containing (in mM): CsCI 140, CaC12 2, MgC12 2, HEPES 10, EGTA 11, Na-ATP 2. For electrophysiology monitoring, ischaemia was induced chemically by using the glycolytic blocker iodoacetate (1 mM) and the oxidative phosphorylation inhibitor antimycin (2.5 μM), and omitting glucose because recordings were performed in an open chamber where O2 can diffuse to the cells (Káradóttir et al., 2005). Recordings of ATP currents were performed in divalent cation-free extracellular solutions, obtained by omitting Ca^2+ and Mg^2+, to potentiate P2X-mediated responses (Matute et al., 1997 Proc Natl Acad Sci U S A 94:8830-8835.). […] Molecular Probes, Inc., Eugene, OR) in culture medium for 30 min at 37 °C. Experiments were carried out in a coverslip chamber continuously perfused with a buffer containing 20 mM HEPES, 2 mM CaC12, 10 mM glucose in HBSS at 1 ml/min. The perfusion chamber was mounted on the stage of a Zeiss inverted epifluorescence microscope (Axiovert 35), equipped with a 150 W xenon lamp Polychrome IV (TILL Photonics GMBH) and a Plan Neofluar 40x oil immersion objective (Zeiss, Germany). Cells were visualized with a high resolution digital B/W CCD camera (ORCA; Hamamatsu Photonics Iberica, Barcelona, Spain) and image acquisition and data analysis were carried out using the AquaCosmos software program (Hamamatsu Photonics Iberica). Images were acquired every 30 ms at 37°C and ischaemia was induced as above. […] At the end of the assay, in situ calibration was carried out with the successive addition of […] and 2M Tris/50 mM EGTA, pH 8.5. Data were analyzed with Excel and Prism software.

[2] = tested on: optic nerve oligodendrocytes; assay: Ca2+ imaging (fura-2) of oligodendrocytes during chemical ischaemia; format: cell-based, Sprague-Dawley rats; conditions: chemical ischaemia; PPADS 100 µM, oATP 1 mM
Method: After 2-4 days in vitro, cultures were composed of at least 98% 04/Ga1C^+ cells. No microglial cells were detected in these cultures. […] Cell death was determined 24h later using calcein-AM (Invitrogen) as previously described (Matute et al., 1997 Proc Natl Acad Sci U S A 94:8830-8835.). Antagonists were present during in vitro ischaemia and during the next 24h incubation period. […] Calcein was used to quantify the number of cells within the reading field. Fluorescence was measured as above and values were plotted as the percentage of DCFDA/calcein red-orange fluorescence versus control. […] Molecular Probes). […] The changes in the membrane potential were calculated as the red (emission at 590)/green (emission at 520) ratio in each condition and results were normalized to control. Whole cell recordings were performed at room temperature and at a holding membrane potential of -70 mV. Extracellular bath solution with a pH of 7.3 contained (in mM): […] Patch clamp pipettes (3-5 MΩ) were filled with internal solution at a pH of 7.3 containing (in mM): CsCI 140, CaC12 2, MgC12 2, HEPES 10, EGTA 11, Na-ATP 2. […] Data were analyzed with Excel and Prism software.

[3] = tested on: optic nerve oligodendrocytes; assay: Reactive oxygen species (DCFDA) after OGD in oligodendrocyte cultures; format: cell-based, Sprague-Dawley rats; conditions: 1 h OGD; BBG 50 nM, PPADS 100 µM
Method: (§1) Primary cultures of oligodendrocytes derived from optic nerves of 12 day-old Sprague-Dawley rats were obtained as previously described (Matute et al., 1997 Proc Natl Acad Sci U S A 94:8830-8835.).Cells were maintained at 37°C and 5% CO2 in a chemically defined medium (Matute et al., 1997 Proc Natl Acad Sci U S A 94:8830-8835.). After 2-4 days in vitro, cultures were composed of at least 98% 04/Ga1C^+ cells. No microglial cells were detected in these cultures. […] Cell death was determined 24h later using calcein-AM (Invitrogen) as previously described (Matute et al., 1997 Proc Natl Acad Sci U S A 94:8830-8835.). Antagonists were present during in vitro ischaemia and during the next 24h incubation period. […] Calcein was used to quantify the number of cells within the reading field. Fluorescence was measured as above and values were plotted as the percentage of DCFDA/calcein red-orange fluorescence versus control. The changes in mitochondrial membrane potential were monitored with 5,5',6,6'-tetrachloro-1,1',3,3'-tetraethylbenzimidazolcarbocyanine iodide (JC-1; Molecular Probes). […] The changes in the membrane potential were calculated as the red (emission at 590)/green (emission at 520) ratio in each condition and results were normalized to control.

[4] = tested on: optic nerve oligodendrocytes; assay: Mitochondrial membrane potential (JC-1) after OGD in oligodendrocyte cultures; format: cell-based, Sprague-Dawley rats; conditions: 1 h OGD; BBG 50 nM, PPADS 100 µM
Method: as §1

[5] = tested on: optic nerve oligodendrocytes; assay: Oxygen and glucose deprivation (OGD) cell death in oligodendrocyte cultures (calcein-AM); format: cell-based, Sprague-Dawley rats; conditions: 1h OGD, calcein 24h later; PPADS 100 µM, BBG 50 nM, CNQX 30 µM, APV 100 µM, apyrase 20 U/ml, ARL67156 100 µM, CBX 20 µM, FFA 100 µM, MFQ 1 nM
Method: Primary cultures of oligodendrocytes derived from optic nerves of 12 day-old Sprague-Dawley rats were obtained as previously described (Matute et al., 1997 Proc Natl Acad Sci U S A 94:8830-8835.).Cells were maintained at 37°C and 5% CO2 in a chemically defined medium (Matute et al., 1997 Proc Natl Acad Sci U S A 94:8830-8835.). After 2-4 days in vitro, cultures were composed of at least 98% 04/Ga1C^+ cells. No microglial cells were detected in these cultures. […] Cell death was determined 24h later using calcein-AM (Invitrogen) as previously described (Matute et al., 1997 Proc Natl Acad Sci U S A 94:8830-8835.). Antagonists were present during in vitro ischaemia and during the next 24h incubation period. […] To assay the levels of reactive oxygen species (ROS), cells were loaded with 40 µM 2',7'- dichlorodihyfluoresceindiacetate (DCFDA; Invitrogen) and 1 µM calcein red-orange (Molecular Probes) immediately after OGD. Calcein was used to quantify the number of cells within the reading field. Fluorescence was measured as above and values were plotted as the percentage of DCFDA/calcein red-orange fluorescence versus control. The changes in mitochondrial membrane potential were monitored with 5,5',6,6'-tetrachloro-1,1',3,3'-tetraethylbenzimidazolcarbocyanine iodide (JC-1; Molecular Probes). Immediately after OGD, cells were loaded with JC-1 (3 µM) at 37°C for 30 min. The changes in the membrane potential were calculated as the red (emission at 590)/green (emission at 520) ratio in each condition and results were normalized to control.

[6] = tested on: AMPA and kainate receptors; assay: Glutamate receptor agonist (AMPA, kainate) induced oligodendrocyte death (calcein fluorescence); format: cell-based, Sprague-Dawley rats; conditions: AMPA (100 µM) + cyclothiazide (100 µM), or kainate (3 mM) + GYKI 53655 (50 µM); PPADS 100 µM, BBG 50 nM
Method: as §1

optic nerves = assay: Optic nerve ischaemia (OGD), tissue damage by LDH release; design: species or system rats; conditions: P28 rat optic nerves, 1h OGD + 2h reperfusion; PPADS 1 mM, BBG 50 nM, oATP 1 mM, apyrase 20 U/ml, MFQ 1 µM, CBX 100 µM, FFA 1 mM
Method: After 1h OGD at 37°C, the medium was replaced with fresh solution containing glucose and equilibrated with 95% O2, 5% CO2 and the nerves were incubated for another 2h at 37°C to simulate reperfusion.

P2X1 = molecular target: T1, P2X1 (Homo sapiens, UniProt P51575); conditions: read-out: IC50 P2X1; cited from earlier work
T1 sequence (P51575 1-399): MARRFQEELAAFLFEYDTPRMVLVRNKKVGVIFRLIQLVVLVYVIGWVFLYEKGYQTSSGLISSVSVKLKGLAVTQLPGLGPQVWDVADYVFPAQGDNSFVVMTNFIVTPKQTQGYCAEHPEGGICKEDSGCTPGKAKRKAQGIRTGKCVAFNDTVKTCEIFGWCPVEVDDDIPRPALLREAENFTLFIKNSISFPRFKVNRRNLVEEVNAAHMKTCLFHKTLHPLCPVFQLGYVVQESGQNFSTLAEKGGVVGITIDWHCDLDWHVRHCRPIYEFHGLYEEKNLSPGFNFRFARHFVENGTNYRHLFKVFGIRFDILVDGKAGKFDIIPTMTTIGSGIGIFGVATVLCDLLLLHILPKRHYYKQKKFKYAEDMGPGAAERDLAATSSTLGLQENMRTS

P2X6 = P2X6 (Homo sapiens, UniProt O15547); conditions: read-out: IC50 P2X6; cited from earlier work
Chain of P2X6 (O15547 whole entry, species assumed): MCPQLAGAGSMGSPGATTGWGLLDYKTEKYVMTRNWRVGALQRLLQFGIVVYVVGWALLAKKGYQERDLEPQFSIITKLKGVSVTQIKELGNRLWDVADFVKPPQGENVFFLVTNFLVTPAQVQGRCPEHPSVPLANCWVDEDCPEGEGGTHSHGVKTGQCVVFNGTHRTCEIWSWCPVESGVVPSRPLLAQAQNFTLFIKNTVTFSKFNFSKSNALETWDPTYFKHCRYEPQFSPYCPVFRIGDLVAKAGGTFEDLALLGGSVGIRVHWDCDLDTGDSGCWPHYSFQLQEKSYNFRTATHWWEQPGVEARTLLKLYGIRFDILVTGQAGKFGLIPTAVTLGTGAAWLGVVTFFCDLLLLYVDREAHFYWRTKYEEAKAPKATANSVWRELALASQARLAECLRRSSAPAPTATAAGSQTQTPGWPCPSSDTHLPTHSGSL

Cc1nc(N=Nc2ccc(S(=O)(=O)O)cc2S(=O)(=O)O)c(COP(=O)(O)O)c(C=O)c1O [PPADS, tetrasodium salt of pyridoxalphosphate-6-azophenyl-2',4'-disulfonic acid]
OGD currents after drug application versus OGD currents before drug application ([1]; after washing the antagonists out, average over BBG and PPADS, n= 15): 134 ± 32% | ischaemic inward currents ([1]; chemical ischaemia (iodoacetate, antimycin, no glucose), -70 mV, PPADS 100 µM, oATP 1 mM, BBG 50 nM): significantly reduced | increase in [Ca2+]i caused by ischaemia [2]: significantly blocked; also recorded: significantly reduced | generation of radical oxygen species (ROS) [3]: prevented | mitochondrial depolarization [4]: prevented | OGD-induced oligodendrocyte cell death [5]: significantly reduced | glutamate receptor-induced oligodendrocyte death [6]: did not significantly inhibit | ischaemia-induced damage to optic nerves (LDH release) (optic nerves): prevented; also recorded: reduced | IC50 (P2X1): 1 to 5 µM | IC50 (P2X6): > 100 µM
